In this experiment the test system is TNF-α. Kind of experiment: LPS-induced TNF-α release in BALB/c mice. The class given is in vivo. The note with it: LPS 1 mg/kg i.p., plasma. On the procedure: The protocol described by Fukuda T. et al (Eur. J. Pharmacol., 391: 317-320, (2000)) was followed. BALB/c mice were divided into groups of ten each. The test sample, suspended in Tween 80 and 0.5% carboxy methylcellulose (CMC), was orally (p.o.) administered to the mice. One hour later, LPS dissolved in sterile, pyrogen-free saline was administered i.p. at the dose of 1 mg/kg. The negative control group received saline as an i.p injection, while all other groups received LPS. Rolipram (30 mg/kg, p.o.) was used as the standard drug. One and a half hours later, under urethane anaesthesia (1.5 g/kg, i.p.) blood was collected from the abdominal artery using a 1 ml syringe flushed with heparin (500 IU/ml). Heparin (5 μl) was used as an anticoagulant in the blood collection tubes. Plasma was separated by centrifugation at 10000 rpm at room temperature, aliquoted and stored at −70° C. until analysis. TNF-α levels in the blood samples were assayed using ELISA and percent inhibition of TNF-α release compared to the control group was calculated.

As to `C=C1C(=O)OC2C3=C(C)CCCC3(C)CCC12O` (stereo not drawn) [Compound 1, 3a-hydroxy-5a,9-dimethyl-3-methylene-3a,4,5,5a,6,7,8,9b-octahydro-3H-naphtho[1,2-b]furan-2-one], the “% inhibition of TNF-α release” value (10 mg/kg p.o.) is listed as 28.69 ± 13.71%, the “% inhibition of TNF-α release” value (30 mg/kg p.o.) worked out at 39.98 ± 10.32% and the “% inhibition of TNF-α release” value (100 mg/kg p.o.) worked out at 87.10 ± 3.67%.

(Values after patent US8206756B2, “Herbal composition for inflammatory disorders” (Piramal Life Sciences Limited, priority 2005, dated 2012).)
